Assay results published in patent publication US9000162B2, “5,8-difluoro-4-(2-(4-(heteroaryloxy)-phenyl)ethylamino)quinazolines and their use as agrochemicals” (Dow AgroSciences LLC, priority 2008, dated 2015).

Experiments:
Type in all cases: in vivo
[1] = system: Pseudoperonospora cubensis (PSPECU); assay: Cucumber downy mildew foliar protectant test; details: 200 ppm foliar, inoculated one day after treatment, read-out: Activity against fungal diseases PSPECU
Method: The plants were inoculated with the fungus one day after treatment. ***=80-100% control; **=50-79% control; *=0-49% control. It will be understood by those in the art that the efficacy of the compounds against the foregoing fungi establishes the general utility of the compounds as fungicides. The activity of the compounds as effective fungicides was determined by applying the compounds to plants and observing control of fungal disease. […] All plants were inoculated with spores of the fungus the day after treatment, then incubated in an environment conducive to disease development. Disease severity was evaluated 4 to 25 days later, depending on the speed of disease development. The following experiments were performed in the laboratory to determine the fungicidal efficacy of the compounds of the invention. Cucumber Downy Mildew (Causal Agent Pseudoperonospora cubensis; Bayer Code […]): Cucumber plants (variety “Bush Champion' or 'Bush Pickle Hybrid') were grown from seed in a soil-less peat-based potting mixture (Metromix) until the first true leaf was 20-80% expanded. Each pot contained 1 seedling. These plants were sprayed until wet with the formulated test compound. On the following day, the leaves were inoculated with an aqueous suspension of downy mildew sporangia and the plants were kept in high humidity for one day to permit sporangia to germinate and infect the leaf. The plants were then incubated in a growth chamber until disease developed on untreated control plants. Table 1 presents the activity of typical compounds of the present invention when evaluated in these experiments. The effectiveness of the test compounds at controlling disease when sprayed on leaves was determined by assessing the severity of disease on treated plants, then converting the severity to percent control based on the level of disease on untreated, inoculated plants.

[2] = system: Puccinia recondita tritici (PUCCRT); assay: Leaf rust of wheat foliar protectant test; details: 200 ppm foliar, inoculated one day after treatment, read-out: Activity against fungal diseases PUCCRT
Method: (§1) The plants were inoculated with the fungus one day after treatment. ***=80-100% control; **=50-79% control; *=0-49% control. It will be understood by those in the art that the efficacy of the compounds against the foregoing fungi establishes the general utility of the compounds as fungicides. The activity of the compounds as effective fungicides was determined by applying the compounds to plants and observing control of fungal disease. […] All plants were inoculated with spores of the fungus the day after treatment, then incubated in an environment conducive to disease development. Disease severity was evaluated 4 to 25 days later, depending on the speed of disease development. The following experiments were performed in the laboratory to determine the fungicidal efficacy of the compounds of the invention. […] Each pot contained 3-8 seedlings. These plants were sprayed until wet with the formulated test compounds. On the following day, the leaves were inoculated with an aqueous spore suspension of Puccinia recondita tritici and the plants were kept in high humidity overnight to permit spores to germinate and infect the leaf. The plants were then transferred to a greenhouse until disease developed on untreated control plants. Table 1 presents the activity of typical compounds of the present invention when evaluated in these experiments. The effectiveness of the test compounds at controlling disease when sprayed on leaves was determined by assessing the severity of disease on treated plants, then converting the severity to percent control based on the level of disease on untreated, inoculated plants.

[3] = system: Magnaporthe grisea = Pyricularia oryzae (PYRIOR); assay: whole plant or invertebrate; details: foliar, read-out: Activity against fungal diseases PYRIOR
[4] = system: Septoria tritici (SEPTTR); assay: Septoria blotch of wheat foliar protectant test; details: Zymoseptoria tritici, read-out: Activity against fungal diseases SEPTTR; for pest or weed control at 25 ppm: foliar, Tested at 25 ppm (footnote b); for pest or weed control at 200 ppm: 200 ppm foliar, inoculated one day after treatment
Method: as §1, with “3-10” for “3-8”, “compound.” for “compounds.”, “Septoria” for “Puccinia recondita”, “(one day in a dark dew chamber followed by three days in a lighted dew chamber)” for “overnight”

| Compound | pest or weed control at 200 ppm [1] [%] | pest or weed control at 200 ppm [2] [%] | pest or weed control at 200 ppm [3] [%] | pest or weed control at 25 ppm [4] [%] | pest or weed control at 200 ppm [4] [%] |
| --- | --- | --- | --- | --- | --- |
| Fc1cc(Oc2cc(C(F)(F)F)ncn2)ccc1CCNc1ncnc2c(F)ccc(F)c12 [Compound 116] | 80 to 100 | 80 to 100 | 80 to 100 | 80 to 100 |  |
| COc1cc(C(F)(F)F)cc(Oc2ccc(CCNc3ncnc4c(F)ccc(F)c34)c(C)c2C)n1 [Compound 30] | 50 to 79 | 80 to 100 | 50 to 79 |  | 0 to 49 |
| Oc1cc(CCNc2ncnc3c(F)ccc(F)c23)ccc1Oc1cc(C(F)(F)F)ccn1 [Compound 56] | 80 to 100 | 80 to 100 | 80 to 100 |  | 50 to 79 |
| COC(=O)c1cnc(Oc2ccc(CCNc3ncnc4c(F)ccc(F)c34)cc2)cc1C(F)(F)F [Compound 28] | 80 to 100 | 80 to 100 | 80 to 100 | 80 to 100 |  |
| COc1cc(CCNc2ncnc3c(F)ccc(F)c23)ccc1Oc1ccnc(C(F)(F)F)c1Cl [Compound 78] | 80 to 100 | 80 to 100 | 80 to 100 |  | 80 to 100 |
| Oc1ccc(CCNc2ncnc3c(F)cc(F)c(F)c23)cc1 [Compound 27] | 0 to 49 | 0 to 49 | 0 to 49 |  | 0 to 49 |
| Fc1ccc(F)c2c(NCCc3ccc(Oc4cnccc4C(F)(F)F)c(Cl)c3)ncnc12 [Compound 91] | 80 to 100 | 80 to 100 | 80 to 100 |  | 80 to 100 |
| Fc1ccc(F)c2c(NCCc3ccc(Oc4cc(C(F)(F)F)ccn4)c(Br)c3)ncnc12 [Compound 39] | 80 to 100 | 80 to 100 | 80 to 100 | 80 to 100 |  |
| Cc1cc(Oc2cc(C(F)(F)F)ccn2)ccc1CCNc1ncnc2c(F)ccc(F)c12 [Compound 55] | 80 to 100 | 80 to 100 | 80 to 100 |  | 80 to 100 |
| COc1cc(CCNc2ncnc3c(F)ccc(F)c23)ccc1Oc1ncc(C(F)(F)F)cc1F [Compound 45] | 80 to 100 | 80 to 100 | 0 to 49 |  | 80 to 100 |
| Fc1nc(C(F)(F)F)nc(Oc2ccc(CCNc3ncnc4c(F)ccc(F)c34)cc2)c1F [Compound 100] | 80 to 100 | 0 to 49 | 0 to 49 |  | 0 to 49 |
| COc1ccc(CCNc2ncnc3c(F)ccc(F)c23)cc1F [Compound 46] | 80 to 100 | 80 to 100 | 0 to 49 |  | 0 to 49 |
| COc1cc(CCNc2ncnc3c(F)ccc(F)c23)ccc1Oc1cc(C(F)(F)F)cc[n+]1[O-] [Compound 59] | 80 to 100 | 80 to 100 | 80 to 100 |  | 80 to 100 |
| Fc1cc(CCNc2ncnc3c(F)ccc(F)c23)ccc1Oc1cc(C(F)(F)F)ccn1 [Compound 49] | 80 to 100 | 80 to 100 | 80 to 100 |  | 80 to 100 |
| COc1ccc(CCNc2ncnc3c(F)ccc(F)c23)c(C)c1C [Compound 20] | 80 to 100 | 80 to 100 | 50 to 79 |  | 50 to 79 |
| Fc1ccc(F)c2c(NCCc3ccc(Oc4ccnc(C(F)(F)F)c4Cl)cc3)ncnc12 [Compound 96] | 80 to 100 | 80 to 100 | 80 to 100 |  | 80 to 100 |
| N#Cc1cc(Oc2ccc(CCNc3ncnc4c(F)ccc(F)c34)cc2)ncc1Cl [Compound 126] | 80 to 100 | 80 to 100 | 80 to 100 | 80 to 100 |  |
| COc1cc(C(F)(F)F)cc(Oc2ccc(CCNc3ncnc4c(F)ccc(F)c34)cc2C)n1 [Compound 29] | 80 to 100 | 80 to 100 | 50 to 79 |  | 80 to 100 |
| CC(Nc1ncnc2c(F)ccc(F)c12)c1ccccc1 (centres unmarked) [Compound 119] | 80 to 100 | 80 to 100 | 80 to 100 |  | 80 to 100 |
| Cc1cc(CCNc2ncnc3c(F)cc(F)c(F)c23)ccc1Oc1cc(C(F)(F)F)cc[n+]1[O-] [Compound 81] | 80 to 100 | 80 to 100 | 80 to 100 |  | 80 to 100 |
| Fc1cc(CCNc2ncnc3c(F)ccc(F)c23)ccc1Oc1cc(C(F)(F)F)ncn1 [Compound 132] | 80 to 100 | 80 to 100 | 80 to 100 |  | 80 to 100 |
| CC(F)(F)c1ccnc(Oc2ccc(CCNc3ncnc4c(F)ccc(F)c34)cc2)c1 [Compound 12] | 80 to 100 | 80 to 100 | 80 to 100 |  | 80 to 100 |
| Oc1ccc(CCNc2ncnc3c(F)cc(F)c(F)c23)cc1Cl [Compound 88] | 80 to 100 | 0 to 49 | 0 to 49 |  | 0 to 49 |
| Oc1ccc(CCNc2ncnc3c(F)ccc(F)c23)cc1 [Compound 4] | 50 to 79 | 50 to 79 | 0 to 49 |  | 0 to 49 |
| COc1cc(CCNc2ncnc3c(F)ccc(F)c23)ccc1Oc1ccnc(C(F)(F)F)c1 [Compound 77] | 80 to 100 | 80 to 100 | 80 to 100 |  | 80 to 100 |
| Cc1cc(CCNc2ncnc3c(F)ccc(F)c23)ccc1Oc1ccnc(C(F)(F)F)c1 [Compound 82] | 80 to 100 | 80 to 100 | 80 to 100 |  | 80 to 100 |
| Cc1cc(CCNc2ncnc3c(F)ccc(F)c23)ccc1Oc1cc(C(F)(F)F)ccn1 [Compound 25] | 80 to 100 | 80 to 100 | 80 to 100 |  | 80 to 100 |
| Cc1cc(CCNc2ncnc3c(F)ccc(F)c23)ccc1Oc1cc(C(F)(F)F)cc[n+]1[O-] [Compound 61] | 80 to 100 | 80 to 100 | 50 to 79 |  | 80 to 100 |
| Oc1ccc(CCNc2ncnc3c(F)ccc(F)c23)cc1F [Compound 47] | 0 to 49 | 0 to 49 | 50 to 79 |  | 0 to 49 |
